Source: US20210000842A1, “TETRACYCLINE MANAGEMENT OF EGFR INHIBITOR ASSOCIATED DERMATOSES” (Foamix Pharmaceuticals Ltd., priority 2015, published 2021)
Entries after “also recorded” stand apart in the source; their conditions may differ.

Assays:
Format in all cases: physicochemical
[1] = Doxycycline Hyclate compatibility test; conditions: for Visual inspection after the storage at 25° C. / Visual inspection after the storage at 40° C. / Visual inspection after the storage at 50° C.: stored two weeks; for Effect of added anti-oxidant on oxidation of Doxycycline Hyclate: waterless medium of propylene glycol and PEG 200
Protocol: (§1) Active agent is incubated with various excipients individually at one or more temperatures and at different ratios of active agent to a single excipient for a certain fixed period or to the point where degradation was suspected. […] Visual inspection is a criterion for indication of compatibility. Any change of color indicates oxidation or degradation. […] Tests are also carried out with combinations of excipients.
(§2) A similar compatibility study was conducted for Doxycycline Hyclate and Doxycycline Monohydrate.
(§3) Different compositions of hydrophilic and hydrophobic solvents containing Doxycycline Hyclate (Set I and Set II) and Doxycycline Monohydrate (Set III) were prepared by weighing the antibiotic in a glass vial and shaking overnight with each solvent investigated.
Group II included Doxycycline Hyclate mixed with various vehicles with addition of antioxidants like alpha tocopherol, butylated hydroxytoluene (BHT), and ascorbic acid.

[2] = Doxycycline Monohydrate compatibility test; conditions: for Visual inspection after the storage at 25° C. / Visual inspection after the storage at 40° C. / Visual inspection after the storage at 50° C. / Visual inspection at T-0: mixture of 1.04% w/w Doxycycline Monohydrate with the ingredient; for Visual inspection after the storage at 25° C. / Visual inspection after the storage at 40° C. / Visual inspection after the storage at 50° C.: stored two weeks; for Visual inspection at T-0: two weeks study; for Effect of added anti-oxidant on oxidation of Doxycycline Monohydrate: waterless medium of propylene glycol and PEG 200
Protocol: Active agent is incubated with various excipients individually at one or more temperatures and at different ratios of active agent to a single excipient for a certain fixed period or to the point where degradation was suspected. The period can be for example 3 or 7 or 14 or 21 or 28 days or longer. Visual inspection is a criterion for indication of compatibility. Any change of color indicates oxidation or degradation. […] Tests are also carried out with combinations of excipients.
as §2, §3
A similar compatibility test was performed on another form of Doxycycline—Doxycycline Monohydrate.

[3] = Compatibility study of minocycline hydrochloride with excipients (visual inspection); conditions: for Compatibility with Minocycline HCl: summary, tested after the storage for up to 3 weeks; for Compatibility with MCH: surfactants: MCH:excipient 1:50, surfactant solubilized in mineral oil; for Compatibility with MCH: surfactants / Compatibility with MCH: oily emollients and waxes: 25° C. and 40° C.; for Effect of added antioxidant on MCH degradation: MCH suspensions comprising water or non-compatible excipients; for Effect of added anti-oxidant on oxidation of Minocycline HCl: waterless medium of propylene glycol and PEG 200; for Compatibility with MCH: hydrophilic solvents: MCH: excipient 1:250, suspension at 25° C. and 40° C. for maximum of sixty days; for Compatibility with MCH: oily emollients and waxes: MCH:excipient 1:250 for oily emollients and 1:50 for waxes, max sixty days; for Compatibility with Minocycline HCl (discussion of compatibility studies): excipient named as label, storage up to 3 weeks
Protocol: as §1

[4] = mixture of 1.04% w/w Doxycycline Hyclate with the ingredient
[5] = summary, tested after the storage for up to 3 weeks
[6] = MCH:excipient 1:50, 25° C. and 40° C., visual inspection
[7] = mixtures of 1.04% w/w, excipient named as label, storage at 25° C., 40° C. and 50° C. for two weeks
[8] = mixtures of 1.04% w/w, excipient named as label, storage at 25° C., 40° C. and 50° C. for two weeks, listed as Ethanol 95%
[9] = mixtures of 1.04% w/w, excipient named as label, storage at 25° C., 40° C. and 50° C. for two weeks, listed as ethanol 95%

Sorbitan Monolaurate
Visual inspection after the storage at 25° C. [1, 4]: Brown solution | Visual inspection after the storage at 40° C. [1, 4]: Brown solution | Visual inspection after the storage at 50° C. [1, 4]: Black solution | Compatibility with Doxycycline Hyclate [1, 5]: No | Visual inspection after the storage at 25° C. [2]: orange solution | Visual inspection after the storage at 40° C. [2]: Brown solution | Visual inspection after the storage at 50° C. [2]: brown solution | Visual inspection at T-0 [2]: Brown mixture | Compatibility with Doxycycline Monohydrate [2, 5]: No | Compatibility with Minocycline HCl [3]: No

CCCCCCCCCCCCCCO [Myristyl alcohol]
Compatibility with Doxycycline Hyclate [1, 5]: Yes | Compatibility with MCH: foam adjuvants [3, 6]: compatible | Compatibility with Minocycline HCl [3]: Yes

C[Si]1(C)O[Si](C)(C)O[Si](C)(C)O[Si](C)(C)O[Si](C)(C)O1 [Cyclomethicone 5 NF]
Compatibility with Doxycycline Hyclate [1, 5]: Yes | Compatibility with Doxycycline Monohydrate [2, 5]: Yes | Compatibility with Minocycline HCl [3]: Yes

CCCCCCCCCCCCCCCCCC(=O)OCC(O)CO (stereo not shown) [Glyceryl monostearate]
Compatibility with MCH: surfactants ([3]; visual inspection): incompatible

CCCCCCCC/C=C\CCCCCCCCO [Oleyl alcohol]
Compatibility with Doxycycline Hyclate [1, 5]: Yes | Compatibility with MCH: foam adjuvants [3, 6]: compatible | Compatibility with Minocycline HCl [3]: Yes

Cc1c(C)c2c(c(C)c1O)CC[C@@](C)(CCC[C@H](C)CCC[C@H](C)CCCC(C)C)O2 [alpha-tocopherol]
Effect of added anti-oxidant on oxidation of Doxycycline Hyclate [1]: did not prevent the oxidation | Effect of added anti-oxidant on oxidation of Doxycycline Monohydrate [2]: did not prevent the oxidation | Effect of added antioxidant on MCH degradation [3]: did not prevent MCH degradation | Effect of added anti-oxidant on oxidation of Minocycline HCl [3]: did not prevent the oxidation

CCOCCOCCO [Diethylene glycol monoethyl ether]
Compatibility with MCH: hydrophilic solvents ([3]; visual inspection): incompatible

CCCCCCCCCCC(CO)CCCCCCCC (stereo not shown) [Octyl dodecanol]
Compatibility with Doxycycline Hyclate [1, 7]: incompatibility | Compatibility with Doxycycline Hyclate [1, 5]: No | Compatibility with Doxycycline Monohydrate [2, 7]: incompatibility | Compatibility with Doxycycline Monohydrate [2, 5]: No | Compatibility with MCH: oily emollients and waxes ([3]; visual inspection): compatible | Compatibility with Minocycline HCl (discussion of compatibility studies) [3]: full compatibility; also recorded: compatible | Compatibility with Minocycline HCl [3]: Yes

CCCCCCCCCCCCCCCCCCCCCCO [Behenyl alcohol]
Compatibility with MCH: foam adjuvants [3, 6]: compatible

Cyclomethicone
Compatibility with MCH: oily emollients and waxes ([3]; visual inspection): compatible

CC(C)CCCCCCCCCCCCCCCO [Isostearyl alcohol]
Compatibility with MCH: foam adjuvants [3, 6]: compatible

CC(O)CO (stereo not shown) [Propylene glycol]
Compatibility with Doxycycline Hyclate [1, 5]: No | Compatibility with Doxycycline Monohydrate [2, 5]: No | Compatibility with MCH: hydrophilic solvents ([3]; visual inspection): incompatible | Compatibility with Minocycline HCl [3]: No

CCCCCCCCCCCCCCCCO [Cetyl alcohol]
Compatibility with MCH: foam adjuvants [3, 6]: compatible

CCO [Ethanol]
Compatibility with Doxycycline Hyclate [1, 8]: stability | Compatibility with Doxycycline Hyclate [1, 9]: stable | Compatibility with Doxycycline Hyclate [1, 5]: Yes | Visual inspection after the storage at 25° C. [2]: Brown solution | Visual inspection after the storage at 40° C. [2]: Brown solution | Visual inspection after the storage at 50° C. [2]: Black solution | Compatibility with Doxycycline Monohydrate [2, 8]: changed their colour from yellow to orange | Compatibility with Doxycycline Monohydrate [2, 9]: oxidized | Compatibility with Doxycycline Monohydrate [2, 5]: No | Compatibility with MCH: hydrophilic solvents ([3]; visual inspection): incompatible | Compatibility with Minocycline HCl (discussion of compatibility studies) [3]: changed their colour from yellow to orange | Compatibility with Minocycline HCl [3]: No

C[S+](C)[O-] [Dimethyl Sulfoxide]
Compatibility with MCH: hydrophilic solvents ([3]; visual inspection): incompatible

SPAN 80
Compatibility with MCH: surfactants ([3]; visual inspection): incompatible

Sorbitan Monostearate
Compatibility with Doxycycline Hyclate [1, 5]: Yes | Compatibility with Minocycline HCl [3]: Yes

CC(C)CCCCCCCCCCCCCCC(=O)O [Isostearic acid]
Compatibility with Doxycycline Hyclate [1, 5]: Yes | Compatibility with MCH: foam adjuvants [3, 6]: not compatible | Compatibility with Minocycline HCl [3]: No

Sorbitan sesquistearate
Compatibility with MCH: surfactants ([3]; visual inspection): incompatible

CCCCCCCCCCCCCCCC(=O)O [Palmitic acid]
Compatibility with MCH: foam adjuvants [3, 6]: compatible

CCCCCCCCCCCCCC(=O)OC(C)C [Isopropyl myristate]
Compatibility with MCH: oily emollients and waxes ([3]; visual inspection): compatible

CCCOC(=O)c1cc(O)c(O)c(O)c1 [propyl gallate]
Effect of added antioxidant on MCH degradation [3]: did not prevent MCH degradation

O=C1O[C@H]([C@@H](O)CO)C(O)=C1O [ascorbic acid]
Effect of added anti-oxidant on oxidation of Doxycycline Hyclate [1]: did not prevent the oxidation | Effect of added anti-oxidant on oxidation of Doxycycline Monohydrate [2]: did not prevent the oxidation | Effect of added anti-oxidant on oxidation of Minocycline HCl [3]: did not prevent the oxidation

CO[C@H]1CO[C@H]2[C@@H]1OC[C@H]2OC [Dimethyl Isosorbide]
Visual inspection after the storage at 25° C. [1, 4]: Yellow solution | Visual inspection after the storage at 40° C. [1, 4]: Brownish orange | Visual inspection after the storage at 50° C. [1, 4]: Orange solution | Visual inspection at T-0 ([1]; mixture of 1.04% w/w Doxycycline Hyclate with the ingredient, two weeks study): yellow solution | Compatibility with Doxycycline Hyclate [1, 5]: No | Visual inspection after the storage at 25° C. [2]: orange solution | Visual inspection after the storage at 40° C. [2]: orange solution | Visual inspection after the storage at 50° C. [2]: Orange solution | Visual inspection at T-0 [2]: yellow solution | Compatibility with Doxycycline Monohydrate [2, 5]: No | Compatibility with MCH: hydrophilic solvents ([3]; visual inspection): incompatible | Compatibility with Minocycline HCl [3]: No

CC(C)OC(=O)CCCCC(=O)OC(C)C [Disopropyl adipate]
Compatibility with MCH: oily emollients and waxes ([3]; visual inspection): compatible

CCCCCCCC/C=C\CCCCCCCC(=O)O [Oleic acid]
Compatibility with MCH: foam adjuvants [3, 6]: compatible

OCCCCO [Butylene Glycol]
Visual inspection after the storage at 50° C. [1, 4]: Light orange solution | Compatibility with Doxycycline Hyclate [1, 5]: No | Visual inspection after the storage at 25° C. [2]: Orange solution | Visual inspection after the storage at 50° C. [2]: black solution | Compatibility with Doxycycline Monohydrate [2, 5]: No | Compatibility with MCH: hydrophilic solvents ([3]; visual inspection): incompatible | Compatibility with Minocycline HCl [3]: No

SPAN 40
Compatibility with MCH: surfactants ([3]; visual inspection): incompatible

CC(C)OC(=O)CCCCC(=O)OC(C)C [Diisopropyl adipate]
Compatibility with Doxycycline Hyclate [1, 5]: Yes | Compatibility with Doxycycline Monohydrate [2, 5]: No | Compatibility with Minocycline HCl [3]: Yes

CC1CCC(C(C)C)C(O)C1 (stereo not shown) [Menthol]
Compatibility with MCH: additives [3, 6]: compatible

OCC(O)CO [Glycerin]
Compatibility with Doxycycline Hyclate [1, 5]: No | Compatibility with Doxycycline Monohydrate [2, 5]: No | Compatibility with MCH: hydrophilic solvents ([3]; visual inspection): incompatible | Compatibility with Minocycline HCl (discussion of compatibility studies) [3]: intensive oxidation | Compatibility with Minocycline HCl [3]: No

SPAN 60
Compatibility with MCH: surfactants ([3]; visual inspection): incompatible

CCCCCCCCCCCCCCCCCC(=O)O [Stearic acid]
Compatibility with MCH: foam adjuvants [3, 6]: compatible

CCCCCCCCCCCCCCCCCCO [Stearyl alcohol]
Compatibility with Doxycycline Hyclate [1, 5]: Yes | Compatibility with MCH: foam adjuvants [3, 6]: compatible | Compatibility with Minocycline HCl [3]: Yes

O [water]
Effect of addition of water on MCH suspended in compatible excipients ([3]; minimal quantities of water (100 μL) added): prompt degradation of MCH
